Laboratory results: patent EP0080779B1, “3-Benzazepines as alpha-2 antagonists” (SMITHKLINE BECKMAN CORPORATION, priority 1981, dated 1983)

Legend:
[1] = test system: conscious normotensive rabbits; experiment: rabbit intraocular pressure determination, compound given systemically (ear vein infusion); format: in vivo; details: given systemically to rabbits; result in words
[2] = test system: DOCA-salt hypertensive rat; experiment: antihypertensive activity in DOCA-salt hypertensive rat, oral administration; format: in vivo
Procedure: (§1) Cannulas are run intradermally so as to be externalized in the dorso-sacral area of either side and kept in place by wound clips. The rats are allowed to regain consciousness after being placed in a small animal restrainer. The arterial cannula is connected to a pressure transducer for constant blood pressure and heart rate monitoring. Drugs are administered either orally via gavage or i.v. via the femoral vein cannula at a rate of 0.06 ml./minute.
(§2) The above test is conducted on both normotensive and hypertensive rats. DOCA Salt hypertensive rats are prepared from male uninephrectomized Sprague-Dawley rats. The rats, approximately six weeks of age, are lightly anesthetized with ether and subcutaneously implanted with a 25 mg. deoxycorticosterone acetate pellet in the left dorso-sacral area. Six days later a second pellet is implanted in the right dorso-sacral area. These rats are fed a normal laboratory diet, but are given 1% saline solution to drink in place of water. The rats are kept on the saline drinking water for 22-24 days.
The effect of the oral administration of 6-chloro-2,3,4,5-tetrahydro-3-methyl-1H-3-benzazepine on blood pressure in the DOCA-salt hypertensive rat was also determined.

[3] = test system: normotensive and hypertensive rats; experiment: antihypertensive activity in conscious cannulated rats, i.v. administration; format: in vivo
Procedure: as §1, §2
The following table sets forth the effect of 6-chloro-2,3,4,5-tetrahydro-3-methyl-1 H-3-benzazepine on blood pressure after i.v. administration to both normotensive and hypertensive rats.

[4] = test system: rabbit intraocular pressure; experiment: normal rabbit intraocular pressure determination, instillation into the eye; format: in vivo; details: instilled into the rabbit eye; at one hour; relative to the untreated eye
Procedure: The measurement of intraocular pressure depends on subjecting the eye to a force that indents or flattens it. Either the effect of a particular force or the force for a given effect is measured. The specific procedure employed for the compounds of this invention is a normal rabbit intraocular pressure determination. A solution of 0.5% proparacaine hydrochloride diluted 1:10 with physiological saline is instilled into the eye of a rabbit. The lids are gently massaged over the cornea to insure good distribution of the solution. The eye is exposed by separating the lids and the tip of a probe is slowly placed on the cornea at the point where the curvature of the cornea is the greatest, i.e., on the optic axis. Employing an Alcon Applanation Pneumatonograph, the intraocular pressure is determined in each eye until a stable reading is obtained. West, C., Capelta, J. and Kaufman, H., Am. J. Ophthalmol. 74:505 (1972).
Nine rabbits are used in each study, three animals for each dose in most circumstances. […] Immediately following the initial reading, the formulations to be tested, comprising concentrations of 0.01 to 10% of active ingredient, are instilled and pressure readings are taken at 0.5, 1, 2, 3, 4, and 6 hours post-instillation. The intraocular pressure is determined from the value recorded on the pneumotonograph chart paper. A mean intraocular pressure value is calculated at each time point. […]

[5] = test system: alpha2 adrenoceptor; experiment: prejunctional alpha2 antagonist activity, isolated superfused guinea pig left atrium (shift of the clonidine concentration-response curve); format: cell-based
Procedure: Briefly, the heart is removed from a pentobarbital-anesthetized male guinea pig. The left atrium is removed, dissected free of extraneous tissue and mounted in a 2 ml. superfusion chamber. The tissue is paced at 60 pulse/minute and the sympathetic nerves excited at 6 minute intervals by field stimulation. The response to nerve stimulation is measured as the difference in contractile force between the basal contraction and peak contraction following a nerve stimulation. A concentration-response curve for clonidine (alpha2 agonist) is prepared by administering an increasing concentration of clonidine following each successive stimulation. The tissue is then superfused with the alpha2 antagonist to be tested for thirty minutes and the clonidine concentration- effect curve was repeated in the presence of antagonist. The receptor dissociation constant of the antagonist (KB) is defined as the antagonist concentration required to shift the log concentration-response curve of the agonist to the right by a factor of 2.

SMILES	effect on systemic blood pressure [1]	Δ BP ([2]; 2 mg/kg PO)	Mean Arterial Pressure Post-Drug ([2]; 2 mg/kg PO, Pre-Drug 148 ± 11)	Δ BP ([2]; 5 mg/kg PO)	Mean Arterial Pressure Post-Drug ([2]; 5 mg/kg PO, Pre-Drug 160 ± 7)	Δ BP ([2]; 10 mg/kg PO)	Mean Arterial Pressure Post-Drug ([2]; 10 mg/kg PO, Pre-Drug 167 ± 8)	Diastolic Blood Pressure Decrease BP ([3]; DOCA Salt Hypertensive rats, n = 4, 0.5 mg/kg I.V., Pre Drug 135 ± 5 MMHg)	Diastolic Blood Pressure Decrease BP ([3]; DOCA Salt Hypertensive rats, n = 4, 1.0 mg/kg I.V., Pre Drug 135 ± 5 MMHg)	Diastolic Blood Pressure Decrease BP ([3]; Normotensive (control) (Sprague-Dawley) rats, n = 4, 0.5 mg/kg I.V., Pre Drug 95 ± 7 MMHg)	Diastolic Blood Pressure Decrease BP ([3]; Normotensive (control) (Sprague-Dawley) rats, n = 4, 1.0 mg/kg I.V., Pre Drug 95 ± 7 MMHg)	Diastolic Blood Pressure Decrease BP ([3]; Normotensive (control) (Wistar-Kyoto) rats, n = 4, 0.5 mg/kg I.V., Pre Drug 115 ± 3 MMHg)	Diastolic Blood Pressure Decrease BP ([3]; Normotensive (control) (Wistar-Kyoto) rats, n = 4, 1.0 mg/kg I.V., Pre Drug 115 ± 3 MMHg)	Diastolic Blood Pressure Decrease BP ([3]; Spontaneously Hypertensive rats, n = 7, 0.5 mg/kg I.V., Pre Drug 167 ± 3 MMHg)	Diastolic Blood Pressure Decrease BP ([3]; Spontaneously Hypertensive rats, n = 7, 1.0 mg/kg I.V., Pre Drug 167 ± 3 MMHg)	decrease of intraocular pressure [4]	alpha2 antagonist activity relative to the 6-chloro derivative ([5]; comparison of KB values)	Kb ([5]; isolated perfused guinea pig left atrium, antagonist concentration shifting the clonidine curve to the right by a factor of 2)
CN1CCc2cccc(Cl)c2CC1 [6-chloro-2,3,4,5-tetrahydro-3-methyl-1H-3-benzazepine]	no significant effect	17 ± 3 MM Hg	131 ± 12	34 ± 4 MM Hg	127 ± 5	68 ± 8 MM Hg	99 ± 4	27 ± 3 MMHg	33 ± 4 MMHg	6 ± 2 MMHg	13 ± 1 MMHg	7 ± 2 MMHg	10 ± 2 MMHg	33 ± 7 MMHg	46 ± 2 MMHg	3.5 mm of mercury		
CN1CCc2ccc(Cl)cc2CC1 [7-chloro-2,3,4,5-tetrahydro-3-methyl-1H-3-benzazepine]																	about one tenth	150 nM
